Laboratory results published in US10316070B2, “Dual protected pro-coelenterazine substrates” (PROMEGA CORPORATION, priority 2016, dated 2019).
Blank lines part the entries; values can stand above or below the molecule they belong to.

Columns and labels:
[1] = test system: thermal stable β-glucosidase; experiment: Glucosidase assay: light output of furimazine mono- or bis-glucoside pro-substrate with Nanoluc, with and without β-glucosidase; type: biochemical; conditions: for Background RLU: without β-glucosidase, Nanoluc; for Signal to Background: β-glucosidase vs no β-glucosidase
Method: To the solution of 50 μl of furimazine mono- or bis-glucoside compound (100 μM) in NanoGlo buffer and 50 μl of NanoGlo buffer containing 1 ng/mL Nanoluc was added 11 μl of thermal stable β-glucosidase (Sigma) in PBS with final concentration of 1 Unit/ml/μM, and the light output was measured over time. The background of pro-substrate was measured under same condition without β-glucosidase.
(§1) The synthesized coelenterazine analogues (compounds of formula (I)) were evaluated for their background and signal/background ratio.

alkaline phosphatase = experiment: Alkaline phosphatase assay: light output of furimazine mono- or bis-phosphate pro-substrate with Nanoluc, with and without alkaline phosphatase; type: biochemical; conditions: for Signal to Background: alkaline phosphatase vs none; for Background RLU: without alkaline phosphatase, Nanoluc
Method: Alkaline phosphatase assays. To the solution of 50 μl furimazine mono- or bis-phosphate compound (50 μM) and 50 μL of NanoGlo buffer containing 1 ng/mL Nanoluc was added, then alkaline phosphatase (Sigma) in PBS with final concentration at 1 Unit/ml/μM was added, and the light output was measured over time. The background of pro-substrate was measured under same condition without adding alkaline phasphotase.
as §1

Cathepsin C = biological target: T1, Cathepsin C (Bos taurus, UniProt Q3ZCJ8); experiment: Cathepsin C assay: light output of furimazine mono- or bis-Gly-Phe pro-substrate with Nanoluc, with and without Cathepsin C; type: biochemical, bovine; conditions: for Signal to Background: Cathepsin C vs none; for Background RLU: without Cathepsin C, Nanoluc
T1 construct: Cathepsin C (Sigma C8511 from bovine spleen); purchased Sigma C8511; host or cells: bovine spleen (tissue-derived)
Method: Cathepsin C assay. To the solution of 50 μl of furimazine mono- or bis-Gly-Phe compound (50 μM) in 1:1 NanoGlo and nanopure water containing DTT 5 mM and 50 µL of 1 ng/mL Nanoluc buffer in 1:1 NanoGlo and nanopure water containing 5 mM DTT was added, then 10 μL of Cathepsin C (Sigma C8511 from bovine spleen) at final concentration of 0.1 U/well was added. The light output was measured over time. The background of pro-substrate was measured under same condition without adding Cathepsin C.
as §1

T1 sequence (Q3ZCJ8 231-394 limits assumed): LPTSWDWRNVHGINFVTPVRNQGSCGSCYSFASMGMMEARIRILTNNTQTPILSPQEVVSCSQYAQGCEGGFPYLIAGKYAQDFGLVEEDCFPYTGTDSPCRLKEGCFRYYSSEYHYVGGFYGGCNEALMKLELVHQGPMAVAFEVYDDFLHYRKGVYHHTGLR
T1 sequence (Q3ZCJ8 25-134 limits assumed): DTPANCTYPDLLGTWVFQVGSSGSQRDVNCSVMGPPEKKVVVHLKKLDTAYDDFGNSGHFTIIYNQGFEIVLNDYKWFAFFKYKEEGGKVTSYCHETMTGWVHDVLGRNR
T1 sequence (Q3ZCJ8 395-463 limits assumed): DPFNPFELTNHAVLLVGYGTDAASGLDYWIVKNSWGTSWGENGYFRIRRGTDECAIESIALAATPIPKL

Compound: OCC1OC(Oc2ccc(COc3c(Cc4ccco4)nc4c(Cc5ccccc5)nc(-c5ccccc5)cn34)cc2)C(O)C(O)C1O [WZ-0246, β-D-glucose Benzyl Furimazine]
Background RLU ([1]; Time 0 hr): 10,028 RLU | Signal to Background ([1]; Time 0 hr): 3,235 | Background RLU ([1]; Time 0.1 hr): 10,884 RLU | Signal to Background ([1]; Time 0.1 hr): 2,915 | Background RLU ([1]; Time 0.25 hr): 12,298 RLU | Signal to Background ([1]; Time 0.25 hr): 2,426 | Background RLU ([1]; Time 0.5 hr): 13,047 RLU | Signal to Background ([1]; Time 0.5 hr): 2,193 | Background RLU ([1]; Time 1 hr): 18,529 RLU | Signal to Background ([1]; Time 1 hr): 1,172 | Background RLU ([1]; Time 1.5 hr): 20,751 RLU | Signal to Background ([1]; Time 1.5 hr): 926 | Background RLU ([1]; Time 2 hr): 24,489 RLU | Signal to Background ([1]; Time 2 hr): 627 | Background RLU ([1]; Time 3 hr): 29,692 RLU | Signal to Background ([1]; Time 3 hr): 385 | Background RLU ([1]; Time 4 hr): 33,514 RLU | Signal to Background ([1]; Time 4 hr): 264 | Background RLU ([1]; Time 5 hr): 37,181 RLU | Signal to Background ([1]; Time 5 hr): 210 | Background RLU ([1]; Time 6 hr): 40,543 RLU | Signal to Background ([1]; Time 6 hr): 157 | Background RLU ([1]; Time 16 hr): 23,092 RLU | Signal to Background ([1]; Time 16 hr): 36

Compound: OCC1OC(Oc2ccc(COc3c(Cc4ccco4)nc4c(Cc5ccccc5)nc(-c5ccc(OC6OC(CO)C(O)C(O)C6O)cc5)cn34)cc2)C(O)C(O)C1O [WZ-0262, bis-(β-D-glucose) Benzyl Furimazine]
background signal (in words) ([1]; FIG. 1, Tables 1 and 2): close to instrument noise | Background RLU ([1]; Time 0 hr): 87 RLU | Signal to Background ([1]; Time 0 hr): 340,753 | Background RLU ([1]; Time 0.1 hr): 39 RLU | Signal to Background ([1]; Time 0.1 hr): 134,646 | Background RLU ([1]; Time 0.25 hr): 32 RLU | Signal to Background ([1]; Time 0.25 hr): 73,734 | Background RLU ([1]; Time 0.5 hr): 21 RLU | Signal to Background ([1]; Time 0.5 hr): 58,191 | Background RLU ([1]; Time 1 hr): 26 RLU | Signal to Background ([1]; Time 1 hr): 21,501 | Background RLU ([1]; Time 1.5 hr): 26 RLU | Signal to Background ([1]; Time 1.5 hr): 12,822 | Background RLU ([1]; Time 2 hr): 20 RLU | Signal to Background ([1]; Time 2 hr): 11,569 | Background RLU ([1]; Time 3 hr): 14 RLU | Signal to Background ([1]; Time 3 hr): 11,041 | Background RLU ([1]; Time 4 hr): 25 RLU | Signal to Background ([1]; Time 4 hr): 5,297 | Background RLU ([1]; Time 5 hr): 26 RLU | Signal to Background ([1]; Time 5 hr): 4,585 | Background RLU ([1]; Time 6 hr): 22 RLU | Signal to Background ([1]; Time 6 hr): 5,060 | Background RLU ([1]; Time 16 hr): 26 RLU | Signal to Background ([1]; Time 16 hr): 2708 | signal-to-background ratio, fold higher than the corresponding mono-protected analogue ([1]; at the initial time point): ~100 fold | signal-to-background ratio (in words) ([1]; compared to mono-protected analogues WZ-0261 and WZ-0246): significantly higher | background, fold lower than the corresponding mono-protected analogue WZ-0246 ([1]; vs WZ-0246): ~200 fold

Compound: O=P(O)(O)Oc1ccc(COc2c(Cc3ccco3)nc3c(Cc4ccccc4)nc(-c4ccccc4)cn23)cc1 [WZ-0263, Furimazine Benzyl Phosphate]
Signal to Background (alkaline phosphatase; Time 5 min): 203 | Background RLU (alkaline phosphatase; Time 5 min): 32,464 RLU | Signal to Background (alkaline phosphatase; Time 11 min): 232 | Background RLU (alkaline phosphatase; Time 11 min): 36,745 RLU | Signal to Background (alkaline phosphatase; Time 21 min): 236 | Background RLU (alkaline phosphatase; Time 21 min): 42,522 RLU | Signal to Background (alkaline phosphatase; Time 31 min): 245 | Background RLU (alkaline phosphatase; Time 31 min): 48,399 RLU | Signal to Background (alkaline phosphatase; Time 42 min): 244 | Background RLU (alkaline phosphatase; Time 42 min): 54,309 RLU | Signal to Background (alkaline phosphatase; Time 62 min): 230 | Background RLU (alkaline phosphatase; Time 62 min): 65,661 RLU | Signal to Background (alkaline phosphatase; Time 93 min): 200 | Background RLU (alkaline phosphatase; Time 93 min): 80,929 RLU | Signal to Background (alkaline phosphatase; Time 123 min): 170 | Background RLU (alkaline phosphatase; Time 123 min): 94,825 RLU

Compound: O=P(O)(O)Oc1c(Cc2ccco2)nc2c(Cc3ccccc3)nc(-c3ccccc3)cn12 [WZ-0265, Furimazine Phosphate]
Signal to Background (alkaline phosphatase; Time 5 min): 3 | Background RLU (alkaline phosphatase; Time 5 min): 9,033,396 RLU | Signal to Background (alkaline phosphatase; Time 11 min): 3 | Background RLU (alkaline phosphatase; Time 11 min): 9,181,168 RLU | Signal to Background (alkaline phosphatase; Time 21 min): 3 | Background RLU (alkaline phosphatase; Time 21 min): 9,310,668 RLU | Signal to Background (alkaline phosphatase; Time 31 min): 3 | Background RLU (alkaline phosphatase; Time 31 min): 9,376,837 RLU | Signal to Background (alkaline phosphatase; Time 42 min): 2 | Background RLU (alkaline phosphatase; Time 42 min): 9,394,555 RLU | Signal to Background (alkaline phosphatase; Time 62 min): 2 | Background RLU (alkaline phosphatase; Time 62 min): 9,359,460 RLU | Signal to Background (alkaline phosphatase; Time 93 min): 2 | Background RLU (alkaline phosphatase; Time 93 min): 9,089,377 RLU | Signal to Background (alkaline phosphatase; Time 123 min): 2 | Background RLU (alkaline phosphatase; Time 123 min): 8,772,026 RLU

Compound: O=P(O)(O)Oc1ccc(COc2c(Cc3ccco3)nc3c(Cc4ccccc4)nc(-c4cccc(OP(=O)(O)O)c4)cn23)cc1 [WZ-0291, Furimazine Bis-Phosphate]
Signal to Background (alkaline phosphatase; Time 5 min): 18,907 | Background RLU (alkaline phosphatase; Time 5 min): 713 RLU | Signal to Background (alkaline phosphatase; Time 11 min): 18,699 | Background RLU (alkaline phosphatase; Time 11 min): 739 RLU | Signal to Background (alkaline phosphatase; Time 21 min): 19,076 | Background RLU (alkaline phosphatase; Time 21 min): 723 RLU | Signal to Background (alkaline phosphatase; Time 31 min): 18,846 | Background RLU (alkaline phosphatase; Time 31 min): 723 RLU | Signal to Background (alkaline phosphatase; Time 42 min): 18,568 | Background RLU (alkaline phosphatase; Time 42 min): 722 RLU | Signal to Background (alkaline phosphatase; Time 62 min): 18,861 | Background RLU (alkaline phosphatase; Time 62 min): 678 RLU | Signal to Background (alkaline phosphatase; Time 93 min): 17,014 | Background RLU (alkaline phosphatase; Time 93 min): 680 RLU | Signal to Background (alkaline phosphatase; Time 123 min): 14,664 | Background RLU (alkaline phosphatase; Time 123 min): 704 RLU | background (in words) (alkaline phosphatase; compared to mono-protected analogue WZ-0263): low | signal-to-background ratio (in words) (alkaline phosphatase; compared to mono-protected analogues WZ-0263 and WZ-0265): significantly higher

The remaining lines, values ahead:

Signal to Background (Cathepsin C; Time 5 min): 151 | Background RLU (Cathepsin C; Time 5 min): 8,974 RLU | Signal to Background (Cathepsin C; Time 10 min): 163 | Background RLU (Cathepsin C; Time 10 min): 9,538 RLU | Signal to Background (Cathepsin C; Time 20 min): 180 | Background RLU (Cathepsin C; Time 20 min): 10,825 RLU | Signal to Background (Cathepsin C; Time 30 min): 197 | Background RLU (Cathepsin C; Time 30 min): 11,741 RLU | Signal to Background (Cathepsin C; Time 40 min): 210 | Background RLU (Cathepsin C; Time 40 min): 12,664 RLU | Signal to Background (Cathepsin C; Time 60 min): 232 | Background RLU (Cathepsin C; Time 60 min): 14,295 RLU | Signal to Background (Cathepsin C; Time 90 min): 255 | Background RLU (Cathepsin C; Time 90 min): 16,141 RLU | Signal to Background (Cathepsin C; Time 120 min): 275 | Background RLU (Cathepsin C; Time 120 min): 17,178 RLU | Signal to Background (Cathepsin C; Time 180 min): 273 | Background RLU (Cathepsin C; Time 180 min): 20,562 RLU | Signal to Background (Cathepsin C; Time 240 min): 259 | Background RLU (Cathepsin C; Time 240 min): 23,705 RLU | Signal to Background (Cathepsin C; Time 938 min): 142 | Background RLU (Cathepsin C; Time 938 min): 15,995 RLU
Compound: NCC(=O)NC(Cc1ccccc1)C(=O)Nc1ccc(COc2c(Cc3ccco3)nc3c(Cc4ccccc4)nc(-c4ccccc4)cn23)cc1 (stereo not drawn) [WZ-0294, Gly-Phe-Aminobenzyl Furimazine]

background (in words) (Cathepsin C; FIG. 3, Tables 5 and 6): down to instrument noise | Signal to Background (Cathepsin C; Time 5 min): 751 | Background RLU (Cathepsin C; Time 5 min): 20 RLU | Signal to Background (Cathepsin C; Time 10 min): 1,464 | Background RLU (Cathepsin C; Time 10 min): 21 RLU | Signal to Background (Cathepsin C; Time 20 min): 2,256 | Background RLU (Cathepsin C; Time 20 min): 18 RLU | Signal to Background (Cathepsin C; Time 30 min): 3,036 | Background RLU (Cathepsin C; Time 30 min): 14 RLU | Signal to Background (Cathepsin C; Time 40 min): 3,941 | Background RLU (Cathepsin C; Time 40 min): 14 RLU | Signal to Background (Cathepsin C; Time 60 min): 8,514 | Background RLU (Cathepsin C; Time 60 min): 15 RLU | Signal to Background (Cathepsin C; Time 90 min): 11,997 | Background RLU (Cathepsin C; Time 90 min): 16 RLU | Signal to Background (Cathepsin C; Time 120 min): 23,011 | Background RLU (Cathepsin C; Time 120 min): 12 RLU | Signal to Background (Cathepsin C; Time 180 min): 29,836 | Background RLU (Cathepsin C; Time 180 min): 17 RLU | Signal to Background (Cathepsin C; Time 240 min): 46,864 | Background RLU (Cathepsin C; Time 240 min): 15 RLU | Signal to Background (Cathepsin C; Time 938 min): 17,386 | Background RLU (Cathepsin C; Time 938 min): 12 RLU | signal-to-background ratio (in words) (Cathepsin C; compared to mono-protected analogue WZ-0294): significantly higher
Compound: NCC(=O)NC(Cc1ccccc1)C(=O)Nc1ccc(COc2c(Cc3ccco3)nc3c(Cc4ccccc4)nc(-c4cccc(NC(=O)C(Cc5ccccc5)NC(=O)CN)c4)cn23)cc1 (stereo not drawn) [WZ-0299, Bis-Gly-Phe-Aminobenzyl Furimazine]
